Test results from the NIST ThermoML archive (doi:10.1021/acs.jced.7b01112).
Numbers after ± are expanded uncertainties.

Assays:
[1] = Crystal; DTA
[2] = Molar enthalpy of transition or fusion; conditions: Crystal; DSC

- Normal melting temperature [1]: 341.30 ± 0.7 °C
- Molar enthalpy of transition or fusion [2]: 13.2 ± 0.837 kcal/mol
SMILES: O=C(O)c1ccc(C(=O)O)o1 [2,5-furandicarboxylic acid]
